Test systems include MALME-3M melanoma; M14 melanoma; HCT-15 colon; HOP-92 NSCLC; LOX IMVI melanoma; SF-539 CNS; PC-3 prostate; HCT-116 colon; IGROV1 ovarian; RPMI-8226 leukemia.
Experiment in all cases: inhibition of tumour cell growth, NCI panel, 48 h

Several values for one entry are separate records, joined by “and”; a condition that tells them apart may be missing. Identical values can stand only once.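 1) Cells in 96-well plates. 2) Compound, 48 h, 5 concentrations. 3) Linear interpolation between surrounding doses. 4) Unreached endpoint = highest concentration. At the GI50, growth is halved. The concentration for full growth arrest is given as TGI.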 A value given as a limit tells only on which side of the number the result lay.

For `Fc1cc2[nH]ncc2c2c3c(c(-c4cn[nH]c4)nc12)CCCC3`, the GI50 with MALME-3M melanoma is 953 nM; with M14 melanoma it was 541 nM; with HCT-15 colon, 560 nM; in the experiment with HOP-92 NSCLC, 1.48 µM; with LOX IMVI melanoma, 486 nM; in the experiment on SF-539 CNS it was 1140 nM. The GI50 in the experiment with PC-3 prostate is 1770 nM; in the experiment on HCT-116 colon, 0.498 µM; in the experiment with IGROV1 ovarian it was 521 nM; in the experiment with RPMI-8226 leukemia, 1.08 µM. Moreover, the TGI was 3.16 µM with MALME-3M melanoma; 4.54 µM in the experiment with M14 melanoma; > 61.5 µM in the experiment on HCT-15 colon; 5.66 µM with HOP-92 NSCLC; 2.4 µM in the experiment on LOX IMVI melanoma; 2.82 µM in the experiment on SF-539 CNS. In addition, the TGI in the experiment with PC-3 prostate is 33.7 µM; in the experiment on HCT-116 colon, > 37.5 µM; with IGROV1 ovarian, 9.56 µM; in the experiment with RPMI-8226 leukemia it was 13.6 µM.

With `O=[N+]([O-])C(/C=C(\Cl)n1nnc2ccccc21)=C(/Cl)n1nnc2ccccc21`, the TGI in the experiment on MALME-3M melanoma, in the experiment on M14 melanoma, in the experiment with HCT-15 colon, with HOP-92 NSCLC, in the experiment with LOX IMVI melanoma and in the experiment on SF-539 CNS was > 100 µM each time. Also, the TGI in the experiment on PC-3 prostate, in the experiment on HCT-116 colon, in the experiment on IGROV1 ovarian and with RPMI-8226 leukemia was > 100 µM each time.

Consider `CN(C)CCSC1=Nc2ccc(Cl)cc2C(c2ccccc2Cl)=NC1`, for which the GI50 in the experiment on MALME-3M melanoma was 13500 nM and > 100000 nM; in the experiment on M14 melanoma it was 15800 nM and > 100000 nM; with HCT-15 colon, 12000 nM and 37800 nM; in the experiment on HOP-92 NSCLC, 12.3 µM and 72.3 µM; in the experiment on LOX IMVI melanoma it was 15600 nM and 69700 nM; in the experiment on SF-539 CNS, 17300 nM and > 100000 nM. The GI50 is 15400 nM and 57700 nM in the experiment on PC-3 prostate; 13.8 µM and 58.4 µM in the experiment on HCT-116 colon; 16.2 µM and 49.4 µM in the experiment on RPMI-8226 leukemia. In addition, the TGI is 28.3 µM and > 100 µM in the experiment on MALME-3M melanoma; 36.4 µM and > 100 µM in the experiment on M14 melanoma; 25.2 µM and > 100 µM in the experiment on HCT-15 colon; 31.7 µM and > 100 µM in the experiment with HOP-92 NSCLC; 30.9 µM and > 100 µM in the experiment on LOX IMVI melanoma; 31.6 µM and > 100 µM in the experiment with SF-539 CNS. Also, the TGI in the experiment with PC-3 prostate was 33.4 µM and > 100 µM; in the experiment on HCT-116 colon it was 31.1 µM and > 100 µM; with IGROV1 ovarian, > 100 µM; with RPMI-8226 leukemia, 40.6 µM and > 100 µM.

With `O=C1OC(O)[C@@H]2[C@H]1[C@H]1CC[C@@H]2O1` (some centres undefined), the GI50 in the experiment on MALME-3M melanoma was 28100 nM; in the experiment with M14 melanoma, 84500 nM; in the experiment on HCT-15 colon, > 100000 nM; with HOP-92 NSCLC it was 20.3 µM; in the experiment with LOX IMVI melanoma, > 100000 nM; in the experiment on SF-539 CNS, > 100000 nM. Besides, the GI50 in the experiment on PC-3 prostate was > 100000 nM; in the experiment with HCT-116 colon, 42.9 µM; in the experiment on IGROV1 ovarian, > 100000 nM; in the experiment with RPMI-8226 leukemia, 49.2 µM. The TGI with MALME-3M melanoma is 77.3 µM; in the experiment on M14 melanoma, > 100 µM; in the experiment with HCT-15 colon it was > 100 µM; in the experiment with HOP-92 NSCLC, > 69.9 µM; in the experiment with LOX IMVI melanoma, > 100 µM; with SF-539 CNS, > 100 µM. The TGI with PC-3 prostate, in the experiment with HCT-116 colon, in the experiment with IGROV1 ovarian and with RPMI-8226 leukemia was > 100 µM throughout.

On to `COc1ccc(-c2nnc(COc3ccc(NC(=O)Nc4cc(C(F)(F)F)cc(C(F)(F)F)c4)cc3F)o2)cc1`, for which the GI50 in the experiment with MALME-3M melanoma is 1850 nM; with M14 melanoma, 2970 nM; with HCT-15 colon, 2010 nM; with HOP-92 NSCLC, 1.5 µM; with LOX IMVI melanoma, 1950 nM; in the experiment with SF-539 CNS, 2090 nM. The GI50 in the experiment with PC-3 prostate was 1000 nM; in the experiment on HCT-116 colon it was 1.63 µM; in the experiment on IGROV1 ovarian it was 2950 nM; with RPMI-8226 leukemia, 1.35 µM. Also, the TGI with MALME-3M melanoma turned out to be 4.77 µM; in the experiment on M14 melanoma it was 11.4 µM; with HCT-15 colon, 6.06 µM; in the experiment on HOP-92 NSCLC it was 4.58 µM; in the experiment with LOX IMVI melanoma, 4.42 µM; in the experiment on SF-539 CNS, 5.28 µM. The TGI in the experiment on PC-3 prostate was 4.34 µM; in the experiment with HCT-116 colon, 3.98 µM; with IGROV1 ovarian, 10.9 µM; in the experiment on RPMI-8226 leukemia, 4.2 µM.

For `COc1ccc(/C=C(/C#N)n2nnc3cccc(F)c32)cc1`, the GI50 was 690 nM with MALME-3M melanoma; 467 nM with M14 melanoma; 401 nM with HCT-15 colon; 0.546 µM in the experiment on HOP-92 NSCLC; 780 nM in the experiment on LOX IMVI melanoma; 1620 nM in the experiment on SF-539 CNS. The GI50 was 1630 nM with PC-3 prostate, 0.533 µM with HCT-116 colon, 759 nM in the experiment with IGROV1 ovarian and 2.18 µM in the experiment with RPMI-8226 leukemia. Further, the TGI in the experiment with MALME-3M melanoma is > 100 µM; with M14 melanoma it was 3.89 µM; with HCT-15 colon it was > 100 µM; in the experiment with HOP-92 NSCLC, 3.23 µM; in the experiment with LOX IMVI melanoma, > 100 µM; in the experiment on SF-539 CNS, 4.06 µM. Moreover, the TGI is > 100 µM in the experiment with PC-3 prostate, 3.02 µM in the experiment on HCT-116 colon, 16.3 µM in the experiment with IGROV1 ovarian and > 100 µM with RPMI-8226 leukemia.

For the molecule `OCc1ccc(-c2ccc(-c3ccc(CO)s3)o2)s1`, the TGI with MALME-3M melanoma was > 88.8 µM; with M14 melanoma, > 84.3 µM; with HCT-15 colon it was 81 µM; with HOP-92 NSCLC, 91.2 µM; in the experiment on LOX IMVI melanoma it was 79.7 µM; in the experiment with SF-539 CNS, > 85.8 µM. In addition, the TGI is > 100 µM in the experiment on PC-3 prostate, 45.2 µM in the experiment with HCT-116 colon, 0.676 µM in the experiment on IGROV1 ovarian and 62.3 µM in the experiment on RPMI-8226 leukemia.

Values taken from PubChem BioAssay (NCI).
